IC50 data for 32 compounds are collected here from patent publication US9340547B2, “Pyrrolotriazinone derivatives as inhibitors P13K” (Almirall, S.A., priority 2011, dated 2016).

The structures appear in SMILES notation. Read-outs that look alike come from different tables or passages of the source.

The test has as its target T1, PI3Kδ (PI3 Kd) (Homo sapiens, UniProt O00329).
T1 construct: purchased Millipore
Briefly: PI3K HTRF enzymatic inhibition assay (cell-free), PI3Kd. Type of test: biochemical. As to the method: PI3K α, β, δ and γ Enzymatic Inhibition Assays
Compounds were screened for their ability to inhibit PI3Kα (PI3Kα), PI3Kβ (PI3 Kb), PI3Kδ (PI3 Kd) and PI3Kγ (PI3 Kg) using a cell-free based PI3K HTRF™ assay (Millipore, ref. #33-017) All reagents to perform the reactions were prepared according to the manufacturer protocol. All PI3K enzymes were recombinant and were purchased at Millipore.
These concentrations were final in the assay. • 3) A reservoir plate containing Adenosine TriPhosphate (ATP) diluted in the Millipore kit buffer was prepared for each isoform. […] Incubation was done for 8 minutes (for all four isoforms) then the reaction was stopped by addition of the Stop solution. The Detection solution was added. These solutions were prepared previously according to the kit specifications.

What is called IC50 is the concentration needed to halve the response being measured.

T1 sequence (O00329 whole entry): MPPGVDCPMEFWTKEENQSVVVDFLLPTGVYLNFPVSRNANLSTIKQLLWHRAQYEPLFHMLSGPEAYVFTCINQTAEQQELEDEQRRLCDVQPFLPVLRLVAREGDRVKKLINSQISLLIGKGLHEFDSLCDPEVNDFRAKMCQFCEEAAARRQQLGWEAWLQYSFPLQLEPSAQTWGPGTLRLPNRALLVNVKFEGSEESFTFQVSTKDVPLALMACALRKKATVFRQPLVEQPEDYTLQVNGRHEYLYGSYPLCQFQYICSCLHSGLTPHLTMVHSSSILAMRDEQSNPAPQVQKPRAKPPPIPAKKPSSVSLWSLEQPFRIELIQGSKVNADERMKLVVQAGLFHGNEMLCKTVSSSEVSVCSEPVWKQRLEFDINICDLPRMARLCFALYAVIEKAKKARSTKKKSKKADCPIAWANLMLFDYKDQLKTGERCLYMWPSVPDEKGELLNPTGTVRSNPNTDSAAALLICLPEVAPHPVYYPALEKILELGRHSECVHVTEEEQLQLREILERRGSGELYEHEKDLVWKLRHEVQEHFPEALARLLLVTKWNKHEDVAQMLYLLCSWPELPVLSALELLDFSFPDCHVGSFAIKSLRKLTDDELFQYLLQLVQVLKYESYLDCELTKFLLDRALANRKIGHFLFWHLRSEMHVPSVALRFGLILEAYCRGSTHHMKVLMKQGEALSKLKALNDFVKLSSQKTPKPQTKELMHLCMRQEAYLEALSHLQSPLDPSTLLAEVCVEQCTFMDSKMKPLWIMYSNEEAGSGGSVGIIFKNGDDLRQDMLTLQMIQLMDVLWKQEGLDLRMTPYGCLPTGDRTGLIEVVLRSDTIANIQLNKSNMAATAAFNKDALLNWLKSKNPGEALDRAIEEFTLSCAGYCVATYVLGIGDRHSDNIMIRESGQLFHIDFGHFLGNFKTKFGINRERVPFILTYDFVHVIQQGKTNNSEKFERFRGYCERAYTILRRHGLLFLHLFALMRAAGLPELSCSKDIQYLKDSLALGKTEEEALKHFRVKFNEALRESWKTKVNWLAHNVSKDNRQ
T1 sequence (P27986 whole entry partner): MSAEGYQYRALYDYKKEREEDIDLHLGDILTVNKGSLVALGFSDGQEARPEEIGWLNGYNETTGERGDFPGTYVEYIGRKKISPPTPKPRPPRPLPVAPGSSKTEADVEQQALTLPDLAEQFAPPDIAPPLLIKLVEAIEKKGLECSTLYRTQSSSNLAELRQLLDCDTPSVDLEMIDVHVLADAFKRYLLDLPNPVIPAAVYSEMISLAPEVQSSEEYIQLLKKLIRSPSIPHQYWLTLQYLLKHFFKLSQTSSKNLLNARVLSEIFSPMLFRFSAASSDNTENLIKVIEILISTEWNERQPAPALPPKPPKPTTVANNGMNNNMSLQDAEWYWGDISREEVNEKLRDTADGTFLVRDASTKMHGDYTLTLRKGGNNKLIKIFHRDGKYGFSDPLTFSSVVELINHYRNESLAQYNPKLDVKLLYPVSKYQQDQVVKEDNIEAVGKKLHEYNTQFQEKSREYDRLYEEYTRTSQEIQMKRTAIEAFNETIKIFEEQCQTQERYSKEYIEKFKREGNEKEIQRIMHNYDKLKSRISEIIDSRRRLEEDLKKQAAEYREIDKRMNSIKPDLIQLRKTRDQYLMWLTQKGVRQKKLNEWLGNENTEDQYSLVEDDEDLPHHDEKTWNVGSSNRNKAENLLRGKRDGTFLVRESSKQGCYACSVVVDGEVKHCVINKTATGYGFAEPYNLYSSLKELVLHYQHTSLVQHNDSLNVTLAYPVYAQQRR

`CCCNC(=O)c1ccn2nc([C@H](C)Nc3ncnc(N)c3C#N)n(-c3ccccc3)c(=O)c12` [Example 152, (S)-2-(1-(6-Amino-5-cyanopyrimidin-4-ylamino)ethyl)-4-oxo-3-phenyl-N-propyl-3,4-dihydropyrrolo[1,2-f][1,2,4]triazine-5-carboxamide]: the concentration for half-maximal inhibition (IC50) stood at 747 nM. On the same count and under the same terms, the value for `C[C@H](Nc1ncnc(N)c1C#N)c1nn2ccc(C#N)c2c(=O)n1-c1cccc(C(F)(F)F)c1` [Example 176, (S)-2-(1-(6-Amino-5-cyanopyrimidin-4-ylamino)ethyl)-4-oxo-3-(3-(trifluoromethyl)phenyl)-3,4-dihydropyrrolo[1,2-f][1,2,4]triazine-5-carbonitrile] was 32 nM. On the same count and under the same terms, the value for `Cc1ccccc1-n1c(Cn2cnc3c(N)ncnc32)nn2ccnc2c1=O` [Example 31, 2-((6-amino-9H-purin-9-yl)methyl)-3-o-tolylimidazo[1,2-f][1,2,4]triazin-4(3H)-one] was 6570 nM. Same read-out and setting: the value for `Cc1ccccc1-n1c(Cn2cnc3c(N)ncnc32)nn2ccc(Cl)c2c1=O` [Example 1, 2-((6-Amino-9H-purin-9-yl)methyl)-5-chloro-3-o-tolylpyrrolo[1,2-f][1,2,4]triazin-4(3H)-one] was 120 nM; that for `C[C@H](Nc1ncnc(N)c1C#N)c1nn2cccc2c(=O)n1-c1cccc(O)c1` [Example 179] was 7 nM; that for `N#Cc1c(N)ncnc1N[C@@H](CCO)c1nn2cccc2c(=O)[nH]1` [Example 165, (S)-4-Amino-6-(3-hydroxy-1-(4-oxo-3,4-dihydropyrrolo[1,2-f][1,2,4]triazin-2-yl)propylamino)pyrimidine-5-carbonitrile] was 670 nM. As for `Cc1ccccc1-n1c(Cn2cnc3c(N)ncnc32)nn2ccc(C(F)(F)F)c2c1=O` [Example 25, 2-((6-Amino-9H-purin-9-yl)methyl)-3-o-tolyl-5-(trifluoromethyl)pyrrolo[1,2-f][1,2,4]triazin-4(3H)-one], inhibition was half-maximal at 347 nM (IC50). In turn, `N#Cc1c(N)ncnc1N1CC(F)(F)C[C@H]1c1nn2cccc2c(=O)n1-c1ccccc1` [Example 73, (S)-4-Amino-6-(4,4-difluoro-2-(4-oxo-3-phenyl-3,4-dihydropyrrolo[1,2-f][1,2,4]triazin-2-yl)pyrrolidin-1-yl)pyrimidine-5-carbonitrile] displayed an IC50 of 31 nM. On the same count and under the same terms, the figure for `C[C@H](Nc1ncnc(N)c1C#N)c1nn2ccc(C(F)(F)F)c2c(=O)n1C1CCCOC1` (single isomer, unassigned) [Example 133] is 11 nM; for `C[C@H](Nc1ncnc(N)c1C#N)c1nn2ccc(CCO)c2c(=O)n1-c1ccccc1` [Example 159, (S)-4-Amino-6-(1-(5-(2-hydroxyethyl)-4-oxo-3-phenyl-3,4-dihydropyrrolo[1,2-f][1,2,4]triazin-2-yl)ethylamino)pyrimidine-5-carbonitrile] it is 35 nM.

`C[C@H](Nc1nc(N)nc2[nH]cnc12)c1nn2ccnc2c(=O)n1-c1ccccc1` [Example 64, (S)-2-(1-(2-Amino-9H-purin-6-ylamino)ethyl)-3-phenylimidazo[1,2-f][1,2,4]triazin-4(3H)-one] yielded an IC50 of 69 nM. Compound `C[C@H](Nc1ncnc(N)c1C#N)c1nn2cc(F)cc2c(=O)n1-c1ccccc1` [Example 75, (S)-4-Amino-6-(1-(6-fluoro-4-oxo-3-phenyl-3,4-dihydropyrrolo[1,2-f][1,2,4]triazin-2-yl)ethylamino)pyrimidine-5-carbonitrile] registered an IC50 of 17 nM.

On to `O=c1c2cccn2nc([C@@H]2CCCN2c2ncnc3[nH]cnc23)n1-c1ccccc1` [Example 44, (S)-2-(1-(9H-Purin-6-yl)pyrrolidin-2-yl)-3-phenylpyrrolo[1,2-f][1,2,4]triazin-4(3H)-one], for which the IC50 was 29 nM. Still for that read-out and setting: the value for `C[C@H](Nc1ccnc2ccnn12)c1nn2cccc2c(=O)n1-c1ccccc1` [Example 54, (S)-3-Phenyl-2-(1-(pyrazolo[1,5-a]pyrimidin-7-ylamino)ethyl)pyrrolo[1,2-f][1,2,4]triazin-4(3H)-one] was 60 nM. On the same count and under the same terms, the figure for `C[C@H](Nc1nc(N)nc2[nH]cnc12)c1nn2cccc2c(=O)n1-c1ccccc1` [Example 21, (S)-2-(1-(2-Amino-9H-purin-6-ylamino)ethyl)-3-phenylpyrrolo[1,2-f][1,2,4]triazin-4(3H)-one] is 5 nM; for `C[C@H](Nc1ncnc(N)c1C#N)c1nn2ccc(CN3CCOCC3)c2c(=O)n1-c1ccccc1` [Example 122, (S)-4-Amino-6-(1-(5-(morpholinomethyl)-4-oxo-3-phenyl-3,4-dihydropyrrolo[1,2-f][1,2,4]triazin-2-yl)ethylamino)pyrimidine-5-carbonitrile] it is 2930 nM; for `C[C@H](Nc1ncnc(N)c1C#N)c1nn2cccc2c(=O)n1C1CCC1` [Example 138, (S)-4-Amino-6-(1-(3-cyclobutyl-4-oxo-3,4-dihydropyrrolo[1,2-f][1,2,4]triazin-2-yl)ethylamino)pyrimidine-5-carbonitrile] it is 8 nM. Same read-out and setting: the value for `Cc1nc(-c2ccn3nc([C@H](C)Nc4ncnc5[nH]cnc45)n(-c4cc(F)cc(F)c4)c(=O)c23)no1` [Example 125, (S)-2-(1-(9H-Purin-6-ylamino)ethyl)-3-(3,5-difluorophenyl)-5-(5-methyl-1,2,4-oxadiazol-3-yl)pyrrolo[1,2-f][1,2,4]triazin-4(3H)-one] was 90 nM. `Cc1ccn2nc([C@H](C)Nc3ncnc4[nH]cnc34)n(-c3ccccc3)c(=O)c12` [Example 68, (S)-2-(1-(9H-Purin-6-ylamino)ethyl)-5-methyl-3-phenyl pyrrolo[1,2-f][1,2,4]triazin-4(3H)-one] showed an IC50 of 1 nM. Same read-out and setting: the value for `C[C@H](Nc1ncnc(N)c1C#N)c1nn2ccc(Br)c2c(=O)[nH]1` [Example 142, (S)-4-Amino-6-(1-(5-bromo-4-oxo-3,4-dihydropyrrolo[1,2-f][1,2,4]triazin-2-yl)ethylamino)pyrimidine-5-carbonitrile] was 5 nM. In turn, `CC[C@H](Nc1ncnc2[nH]cnc12)c1nn2cccc2c(=O)n1-c1ccccc1` [Example 15, (S)-2-(1-(9H-Purin-6-ylamino)propyl)-3-phenylpyrrolo[1,2-f][1,2,4]triazin-4(3H)-one] had an IC50 of 18 nM. The same measure, in the same setting: the value for `C[C@H](Nc1ncnc(N)c1C#N)c1nn2ccc(C#N)c2c(=O)n1-c1cc(Cl)cc(Cl)c1` [Example 104, (S)-2-(1-(6-Amino-5-cyanopyrimidin-4-ylamino)ethyl)-3-(3,5-dichlorophenyl)-4-oxo-3,4-dihydropyrrolo[1,2-f][1,2,4]triazine-5-carbonitrile] was 36 nM; that for `C[C@H](Nc1ncnc(N)c1C#N)c1nn2cccc2c(=O)n1-c1cn[nH]c1` [Example 124, (S)-4-Amino-6-(1-(4-oxo-3-(1H-pyrazol-4-yl)-3,4-dihydropyrrolo[1,2-f][1,2,4]triazin-2-yl)ethylamino)pyrimidine-5-carbonitrile] was 11 nM. Same read-out and setting: the figure for `C[C@H](Nc1ncnc(N)c1C#N)c1nn2ccc(Br)c2c(=O)n1-c1cccc(C(F)(F)F)c1` [Example 169, (S)-4-Amino-6-(1-(5-bromo-4-oxo-3-(3-(trifluoromethyl)phenyl)-3,4-dihydropyrrolo[1,2-f][1,2,4]triazin-2-yl)ethylamino)pyrimidine-5-carbonitrile] is 6 nM.

The compound `Nc1nc(N2CCC[C@H]2c2nn3cccc3c(=O)n2-c2ccccc2)c2nc[nH]c2n1` [Example 56, (S)-2-(1-(2-Amino-9H-purin-6-yl)pyrrolidin-2-yl)-3-phenyl pyrrolo[1,2-f][1,2,4]triazin-4(3H)-one] came in with a concentration for half-maximal inhibition (IC50) of 15 nM. On the same count and under the same terms, the figure for `C[C@H](Nc1ncnc(N)c1C#N)c1nn2ccnc2c(=O)n1-c1ccccc1` [Example 50, (S)-4-amino-6-(1-(4-oxo-3-phenyl-3,4-dihydroimidazo[1,2-f][1,2,4]triazin-2-yl)ethylamino)pyrimidine-5-carbonitrile] is 57 nM. Regarding `Cc1ccccc1-n1c(CSc2ncnc3[nH]cnc23)nn2ccc(C)c2c1=O` [Example 11, 2-((9H-Purin-6-ylthio)methyl)-5-methyl-3-o-tolylpyrrolo[1,2-f][1,2,4]triazin-4(3H)-one], the IC50 (recombinant PI3 Kd 0.60 nM, PIP2 2 μM, ATP 20 μM, 8 min incubation) turned out to be 119 nM. On to `CC[C@H](Nc1nc(N)nc2[nH]cnc12)c1nn2cccc2c(=O)n1-c1ccccc1` [Example 17, (S)-2-(1-(2-Amino-9H-purin-6-ylamino)propyl)-3-phenylpyrrolo[1,2-f][1,2,4]triazin-4(3H)-one], for which it took 9 nM to reach half-maximal inhibition (IC50). Consider `Cc1ccc2c(=O)n(-c3ccccc3)c([C@H](C)Nc3ncnc(N)c3C#N)nn12` [Example 71, (S)-4-Amino-6-(1-(7-methyl-4-oxo-3-phenyl-3,4-dihydropyrrolo[1,2-f][1,2,4]triazin-2-yl)ethylamino)pyrimidine-5-carbonitrile], for which inhibition was half-maximal at 9 nM (IC50).

`C[C@H](Nc1ncnc(N)c1C#N)c1nn2ccc(C(F)F)c2c(=O)n1-c1ccccc1` [Example 47, (S)-4-Amino-6-(1-(5-(difluoromethyl)-4-oxo-3-phenyl-3,4-dihydropyrrolo[1,2-f][1,2,4]triazin-2-yl)ethylamino)pyrimidine-5-carbonitrile] gave a 50% inhibitory concentration (IC50) of 1 nM. Turning to `Nc1ncnc2c1ncn2Cc1nn2ccc(Cl)c2c(=O)n1Cc1ccccc1` [Example 29], the half-inhibitory concentration (IC50) turned out to be 376 nM.

`C[C@H](Nc1ncnc(N)c1F)c1nn2ccc(C(F)F)c2c(=O)n1-c1cc(F)cc(F)c1` [Example 102, (S)-2-(1-(6-Amino-5-fluoropyrimidin-4-ylamino)ethyl)-5-(difluoromethyl)-3-(3,5-difluorophenyl)pyrrolo[1,2-f][1,2,4]triazin-4(3H)-one] showed an IC50 of 42 nM.
